{"source": "patent US8987195B2", "about": "(priority 2012, dated 2015)", "key": {"HCV genotype 1b replicon": {"system": "HCV genotype 1b replicon", "assay": "HCV replicon assay, genotype 1b replicon EC50", "type": "cell-based, Hepatitis C virus", "conditions": "Hepatitis C virus, genotype 1b replicon, read-out: EC50 [gt-1b]", "method_in_brief": "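Cells harbouring a stable replicon are grown under G418 selection, then plated with test compound in G418-free medium for 24-48 hours. After washing and lysis, RNA or luciferase signal is measured and expressed as percent of DMSO control to give EC50.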"}, "[1]": {"biological_target": "HCV NS3/4A protease genotype 1b (Hepatitis C virus genotype 1b, UniProt P26663)", "assay": "HCV NS3/4A protease time-resolved fluorescence (TRF) assay, Ki against genotype 1b", "type": "biochemical", "conditions": "IC50 [gt-1b] (nM), NS3/4A genotype 1b, enzyme 0.2 nM", "method_in_brief": "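Enzyme 0.2 nM 1b / 0.4 nM A156T / 0.025 nM 3a; 30 min preinc. w/ cpd; 25 nM TRF peptide; 2.5 h RT; ex 340/em 615 time-delayed; 4-param IC50 → Ki = IC50/(1+[S]/KM).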"}}, "note": "Where two headings read alike, the source gives them in different places.", "data": [{"smiles": "CCCCNC(=O)N[C@H]1CCCCC/C=C\\[C@@H]2C[C@@]2(C(=O)NS(=O)(=O)C2(C)CC2)NC(=O)[C@@H]2C[C@]3(CCc4c(c(C)nc5ccccc45)O3)CN2C1=O", "note": "[Example 287, (2R,6S,12Z,13aS,14aR,16aS)-6-[(butylcarbamoyl)amino]-5′-methyl-N-[(1-methylcyclopropyl)sulfonyl]-5,16-dioxo-1,1′,2′,6,7,8,9,10,11,13a,14,15,16,16a-tetradecahydrospiro[cyclopropa[e]pyrrolo[1,2-a][1,4]diazacyclopentadecine-2,3′-pyrano[2,3-c]quinoline]-14a(5H)-carboxamide]", "values": [{"measurement": "EC50", "setting": "HCV genotype 1b replicon; HCOOH salt", "value": 23, "unit": "nM"}, {"measurement": "IC50", "setting": "[1]; HCOOH salt", "value": 0.013, "unit": "nM"}]}, {"smiles": "Cc1nc2ccccc2c2c1O[C@]1(CC2)C[C@H]2C(=O)N[C@]3(C(=O)NS(=O)(=O)C4(C)CC4)C[C@H]3/C=C\\CCCCC[C@H](NC(=O)NCCc3ccccc3)C(=O)N2C1", "note": "[Example 288, (2R,6S,12Z,13aS,14aR,16aS)-5′-methyl-N-[(1-methylcyclopropyl)sulfonyl]-5,16-dioxo-6-{[(2-phenylethyl)carbamoyl]amino}-1,1′,2′,6,7,8,9,10,11,13a,14,15,16,16a-tetradecahydrospiro[cyclopropa[e]pyrrolo[1,2-a][1,4]diazacyclopentadecine-2,3′-pyrano[2,3-c]quinoline]-14a(5H)-carboxamide]", "values": [{"measurement": "EC50", "setting": "HCV genotype 1b replicon; HCOOH salt", "value": 614, "unit": "nM"}, {"measurement": "IC50", "setting": "[1]; HCOOH salt", "value": 0.131, "unit": "nM"}]}, {"smiles": "CCN(CC)C(=O)N[C@H]1CCCCC/C=C\\[C@@H]2C[C@@]2(C(=O)NS(=O)(=O)C2(C)CC2)NC(=O)[C@@H]2C[C@]3(CCc4c(c(C)nc5ccccc45)O3)CN2C1=O", "note": "[Example 289, (2R,6S,12Z,13aS,14aR,16aS)-6-[(diethylcarbamoyl)amino]-5′-methyl-N-[(1-methylcyclopropyl)sulfonyl]-5,16-dioxo-1,1′,2′,6,7,8,9,10,11,13a,14,15,16,16a-tetradecahydrospiro[cyclopropa[e]pyrrolo[1,2-a][1,4]diazacyclopentadecine-2,3′-pyrano[2,3-c]quinoline]-14a(5H)-carboxamide]", "values": [{"measurement": "EC50", "setting": "HCV genotype 1b replicon; HCOOH salt", "value": 7, "unit": "nM"}, {"measurement": "IC50", "setting": "[1]; HCOOH salt", "value": 0.023, "unit": "nM"}]}, {"smiles": "Cc1nc2ccccc2c2c1O[C@]1(CC2)C[C@H]2C(=O)N[C@]3(C(=O)NS(=O)(=O)C4(C)CC4)C[C@H]3/C=C\\CCCCC[C@H](NC(=O)N3CCCCC3)C(=O)N2C1", "note": "[Example 290, (2R,6S,12Z,13aS,14aR,16aS)-5′-methyl-N-[(1-methylcyclopropyl)sulfonyl]-5,16-dioxo-6-[(piperidin-1-ylcarbonyl)amino]-1,1′,2′,6,7,8,9,10,11,13a,14,15,16,16a-tetradecahydrospiro[cyclopropa[e]pyrrolo[1,2-a][1,4]diazacyclopentadecine-2,3′-pyrano[2,3-c]quinoline]-14a(5H)-carboxamide]", "values": [{"measurement": "EC50", "setting": "HCV genotype 1b replicon; HCOOH salt", "value": 7.02, "unit": "nM"}, {"measurement": "IC50", "setting": "[1]; HCOOH salt", "value": 0.017, "unit": "nM"}]}, {"smiles": "Cc1nc2ccccc2c2c1O[C@]1(CC2)C[C@H]2C(=O)N[C@]3(C(=O)NS(=O)(=O)C4(C)CC4)C[C@H]3/C=C\\CCCCC[C@H](NC(=O)N3CCOCC3)C(=O)N2C1", "note": "[Example 291, (2R,6S,12Z,13aS,14aR,16aS)-5′-methyl-N-[(1-methylcyclopropyl)sulfonyl]-6-[(morpholin-4-ylcarbonyl)amino]-5,16-dioxo-1,1′,2′,6,7,8,9,10,11,13a,14,15,16,16a-tetradecahydrospiro[cyclopropa[e]pyrrolo[1,2-a][1,4]diazacyclopentadecine-2,3′-pyrano[2,3-c]quinoline]-14a(5R)-carboxamide]", "values": [{"measurement": "EC50", "setting": "HCV genotype 1b replicon; HCOOH salt", "value": 84.6, "unit": "nM"}, {"measurement": "IC50", "setting": "[1]; HCOOH salt", "value": 0.032, "unit": "nM"}]}, {"smiles": "Cc1nc2ccccc2c2c1O[C@]1(CC2)C[C@H]2C(=O)N[C@]3(C(=O)NS(=O)(=O)C4(C)CC4)C[C@H]3/C=C\\CCCCC[C@H](NC(=O)N(C)c3ccccc3)C(=O)N2C1", "note": "[Example 292, (2R,6S,12Z,13aS,14aR,16aS)-5′-methyl-N-[(1-methylcyclopropyl)sulfonyl]-6-{[methyl(phenyl)carbamoyl]amino}-5,16-dioxo-1,1′,2′,6,7,8,9,10,11,13a,14,15,16,16a-tetradecahydrospiro[cyclopropa[e]pyrrolo[1,2-a][1,4]diazacyclopentadecine-2,3′-pyrano[2,3-c]quinoline]-14a(5H)-carboxamide]", "values": [{"measurement": "EC50", "setting": "HCV genotype 1b replicon; HCOOH salt", "value": 27.4, "unit": "nM"}, {"measurement": "IC50", "setting": "[1]; HCOOH salt", "value": 0.077, "unit": "nM"}]}, {"smiles": "Cc1nc2ccccc2c2c1O[C@]1(CC2)C[C@H]2C(=O)N[C@]3(C(=O)NS(=O)(=O)C4(C)CC4)C[C@H]3/C=C\\CCCCC[C@H](NC(=O)N(C(C)C)C(C)C)C(=O)N2C1", "note": "[Example 293, (2R,6S,12Z,13aS,14aR,16aS)-6-{[di(propan-2-yl)carbamoyl]amino}-5′-methyl-N-[(1-methylcyclopropyl)sulfonyl]-5,16-dioxo-1,1′,2′,6,7,8,9,10,11,13a,14,15,16,16a-tetradecahydrospiro[cyclopropa[e]pyrrolo[1,2-a][1,4]diazacyclopentadecine-2,3′-pyrano[2,3-c]quinoline]-14a(5H)-carboxamide]", "values": [{"measurement": "EC50", "setting": "HCV genotype 1b replicon; HCOOH salt", "value": 4.87, "unit": "nM"}, {"measurement": "IC50", "setting": "[1]; HCOOH salt", "value": 0.021, "unit": "nM"}]}, {"smiles": "COc1ccc2nc(C(C)C)c3c(c2c1)CC[C@]1(C[C@H]2C(=O)N[C@]4(C(=O)NS(=O)(=O)C5(C)CC5)C[C@H]4/C=C\\CCCCC[C@H](NC(=O)OC(C)(C)C(F)(F)F)C(=O)N2C1)O3", "note": "[Example 295, 1,1,1-trifluoro-2-methylpropan-2-yl [(2R,6S,12Z,13aS,14aR,16aS)-9′-methoxy-14a-{[(1-methylcyclopropyl)sulfonyl]carbamoyl}-5,16-dioxo-5′-(propan-2-yl)-1,1′,2′,5,6,7,8,9,10,11,13a,14,14a,15,16,16a-hexadecahydrospiro[cyclopropa[e]pyrrolo[1,2-a][1,4]diazacyclopentadecine-2,3′-pyrano[2,3-c]quinolin]-6-yl]carbamate]", "values": [{"measurement": "EC50", "setting": "HCV genotype 1b replicon", "value": 2.36, "unit": "nM"}, {"measurement": "IC50", "setting": "[1]", "value": 0.024, "unit": "nM"}]}, {"smiles": "Cc1nc2ccc(OCC(F)(F)F)cc2c2c1O[C@]1(CC2)C[C@H]2C(=O)N[C@]3(C(=O)NS(=O)(=O)C4(C)CC4)C[C@H]3/C=C\\CCCCC[C@H](NC(=O)OC(C)(C)C)C(=O)N2C1", "note": "[Example 296, tert-butyl [(2R,6S,12Z,13aS,14aR,16aS)-5′-methyl-14a-{[(1-methylcyclopropyl)sulfonyl]carbamoyl}-5,16-dioxo-9′-(2,2,2-trifluoroethoxy)-1,1′,2′,5,6,7,8,9,10,11,13a,14,14a,15,16,16a-hexadecahydrospiro[cyclopropa[e]pyrrolo[1,2-a][1,4]diazacyclopentadecine-2,3′-pyrano[2,3-c]quinolin]-6-yl]carbamate]", "values": [{"measurement": "EC50", "setting": "HCV genotype 1b replicon", "value": 2.55, "unit": "nM"}, {"measurement": "IC50", "setting": "[1]", "value": 0.009, "unit": "nM"}]}, {"smiles": "Cc1nc2ccc(OC(F)(F)F)cc2c2c1O[C@]1(CC2)C[C@H]2C(=O)N[C@]3(C(=O)NS(=O)(=O)C4(C)CC4)C[C@H]3/C=C\\CCCCC[C@H](NC(=O)OCC(C)(C)C)C(=O)N2C1", "note": "[Example 297, 2,2-dimethylpropyl [(2R,6S,12Z,13aS,14aR,16aS)-5′-methyl-14a-{[(1-methylcyclopropyl)sulfonyl]carbamoyl}-5,16-dioxo-9′-(trifluoromethoxy)-1,1′,2′,5,6,7,8,9,10,11,13a,14,14a,15,16,16a-hexadecahydrospiro[cyclopropa[e]pyrrolo[1,2-a][1,4]diazacyclopentadecine-2,3′-pyrano[2,3-c]quinolin]-6-yl]carbamate]", "values": [{"measurement": "EC50", "setting": "HCV genotype 1b replicon", "value": 6.06, "unit": "nM"}, {"measurement": "IC50", "setting": "[1]", "value": 0.009, "unit": "nM"}]}, {"smiles": "Cc1nc2ccc(OC(F)(F)F)cc2c2c1O[C@]1(CC2)C[C@H]2C(=O)N[C@]3(C(=O)NS(=O)(=O)C4(C)CC4)C[C@H]3/C=C\\CCCCC[C@H](NC(=O)OC(C)(C)C(F)(F)F)C(=O)N2C1", "note": "[Example 298, 1,1,1-trifluoro-2-methylpropan-2-yl [(2R,6S,12Z,13aS,14aR,16aS)-5′-methyl-14a-{[(1-methylcyclopropyl)sulfonyl]carbamoyl}-5,16-dioxo-9′-(trifluoromethoxy)-1,1′,2′,5,6,7,8,9,10,11,13a,14,14a,15,16,16a-hexadecahydrospiro[cyclopropa[e]pyrrolo[1,2-a][1,4]diazacyclopentadecine-2,3′-pyrano[2,3-c]quinolin]-6-yl]carbamate]", "values": [{"measurement": "EC50", "setting": "HCV genotype 1b replicon", "value": 6.31, "unit": "nM"}, {"measurement": "IC50", "setting": "[1]", "value": 0.017, "unit": "nM"}]}, {"smiles": "COc1ccc2nc(C(C)C)c3c(c2c1)C(F)(F)C[C@]1(C[C@H]2C(=O)N[C@]4(C(=O)NS(=O)(=O)C5(C)CC5)C[C@H]4/C=C\\CCCCC[C@H](NC(=O)OC(C)(C)C(F)(F)F)C(=O)N2C1)O3", "note": "[Example 299, 1,1,1-trifluoro-2-methylpropan-2-yl [(2S,6S,12Z,13aS,14aR,16aS)-1′,1′-difluoro-9′-methoxy-14a-{[(1-methylcyclopropyl)sulfonyl]carbamoyl}-5,16-dioxo-5′-(propan-2-yl)-1,1′,2′,5,6,7,8,9,10,11,13a,14,14a,15,16,16a-hexadecahydrospiro[cyclopropa[e]pyrrolo[1,2-a][1,4]diazacyclopentadecine-2,3′-pyrano[2,3-c]quinolin]-6-yl]carbamate]", "values": [{"measurement": "EC50", "setting": "HCV genotype 1b replicon; K+ salt", "value": 6.37, "unit": "nM"}, {"measurement": "IC50", "setting": "[1]; K+ salt", "value": 0.02, "unit": "nM"}]}, {"smiles": "Cc1nc2ccccc2c2c1O[C@]1(CC2)C[C@H]2C(=O)N[C@]3(C(=O)NS(=O)(=O)C4(C)CC4)C[C@H]3/C=C\\CCCCC[C@H](NC(=O)OC(C)(C)C(F)(F)C(F)(F)F)C(=O)N2C1", "note": "[Example 300, 3,3,4,4,4-pentafluoro-2-methylbutan-2-yl [(2R,6S,12Z,13aS,14aR,16aS)-5′-methyl-14a-{[(1-methylcyclopropyl)sulfonyl]carbamoyl}-5,16-dioxo-1,1′,2′,5,6,7,8,9,10,11,13a,14,14a,15,16,16a-hexadecahydrospiro[cyclopropa[e]pyrrolo[1,2-a][1,4]diazacyclopentadecine-2,3′-pyrano[2,3-c]quinolin]-6-yl]carbamate]", "values": [{"measurement": "EC50", "setting": "HCV genotype 1b replicon", "value": 3.12, "unit": "nM"}, {"measurement": "IC50", "setting": "[1]", "value": 0.021, "unit": "nM"}]}]}
